In PubChem BioAssay (NCI):
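Compound exposure: 48 hours, 5 concentrations, 96-well plates. Abbreviation: GI50, concentration required for 50% inhibition of growth. At the TGI there is no net growth.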

Key:
Assay in all cases: DTP human tumour cell line panel, 48 h
[1] = test system: NCI-H460 lung
[2] = test system: HS 578T breast
[3] = test system: CCRF-CEM leukemia
[4] = test system: HCT-15 colon
[5] = test system: SK-OV-3 ovarian
[6] = test system: DU-145 prostate
[7] = test system: MDA-MB-231 breast
[8] = test system: KM12 colon
[9] = test system: SK-MEL-28 melanoma
[10] = test system: HT29 colon
[11] = test system: SF-268 CNS
[12] = test system: BT-549 breast
[13] = test system: HCT-116 colon
[14] = test system: UACC-62 melanoma
[15] = test system: NCI-H23 lung
[16] = test system: MCF7 breast
[17] = test system: SF-539 CNS
[18] = test system: A549 NSCLC
[19] = test system: TK-10 renal
[20] = test system: RPMI-8226 leukemia
[21] = test system: EKVX NSCLC
[22] = test system: 786-0 renal
[23] = test system: SK-MEL-2 melanoma
[24] = test system: HOP-92 NSCLC
[25] = test system: HCC-2998 colon
[26] = test system: UO-31 renal
[27] = test system: SK-MEL-5 melanoma
[28] = test system: SNB-75 CNS
[29] = test system: OVCAR-8 ovarian
[30] = test system: SN12C renal
[31] = test system: SF-295 CNS
[32] = test system: HL-60(TB) leukemia
[33] = test system: K-562 leukemia
[34] = test system: U251 CNS
[35] = test system: A498 renal
[36] = test system: OVCAR-5 ovarian
[37] = test system: RXF 393 renal
[38] = test system: LOX IMVI melanoma
[39] = test system: SW-620 colon
[40] = test system: OVCAR-3 ovarian
[41] = test system: SR leukemia
[42] = test system: M14 melanoma
[43] = test system: PC-3 prostate
[44] = test system: IGROV1 ovarian
[45] = test system: MDA-MB-435
[46] = test system: NCI/ADR-RES ovarian
[47] = test system: SNB-19 CNS
[48] = test system: MOLT-4 leukemia
[49] = test system: HOP-62 NSCLC
[50] = test system: COLO 205 colon
[51] = test system: UACC-257 melanoma
[52] = test system: ACHN renal
[53] = test system: NCI-H226 lung
[54] = test system: NCI-H522 lung
[55] = test system: OVCAR-4 ovarian

COc1cc2cc(c1Cl)N(C)C(=O)C[C@H](OC(=O)[C@H](C)N(C)C(=O)CCS)C[C@]1(C)O[C@H]1[C@H](C)[C@@H]1C[C@@](O)(NC(=O)O1)[C@H](OC)/C=C/C=C(\C)C2
GI50 [1]: < 5 nM | TGI [1]: > 30800 nM | GI50 [2]: 16.4 nM | TGI [2]: > 32000 nM | GI50 [3]: < 5 nM | TGI [3]: > 50000 nM | GI50 [4]: 6.24 nM | TGI [4]: > 50000 nM | GI50 [5]: < 5 nM | TGI [5]: > 50000 nM | GI50 [6]: < 5 nM | TGI [6]: > 50000 nM | GI50 [7]: 6.81 nM | TGI [7]: 1610 nM | GI50 [8]: < 5 nM | TGI [8]: > 50000 nM | GI50 [9]: 3470 nM | TGI [9]: > 50000 nM | GI50 [10]: < 5 nM | TGI [10]: > 50000 nM | GI50 [11]: 9.54 nM | TGI [11]: > 50000 nM | GI50 [12]: < 5 nM | TGI [12]: 134 nM | GI50 [13]: < 5 nM | TGI [13]: 5780 nM | GI50 [14]: < 5 nM | TGI [14]: > 50000 nM | GI50 [15]: 8.04 nM | TGI [15]: > 50000 nM | GI50 [16]: < 5 nM | TGI [16]: > 50000 nM | GI50 [17]: < 5 nM | TGI [17]: 67.4 nM | GI50 [18]: 7.52 nM | TGI [18]: > 50000 nM | GI50 [19]: > 17100 nM | TGI [19]: > 50000 nM | GI50 [20]: < 5 nM | TGI [20]: 21600 nM | GI50 [21]: 9.51 nM | TGI [21]: > 50000 nM | GI50 [22]: 9.06 nM | TGI [22]: > 24700 nM | GI50 [23]: < 5 nM | TGI [23]: > 50000 nM | GI50 [24]: < 5 nM | TGI [24]: 49600 nM | GI50 [25]: 6.09 nM | TGI [25]: > 50000 nM | GI50 [26]: 28.2 nM | TGI [26]: > 50000 nM | GI50 [27]: < 5 nM | TGI [27]: 62.8 nM | GI50 [28]: < 5 nM | TGI [28]: > 50000 nM | GI50 [29]: 8.3 nM | TGI [29]: > 50000 nM | GI50 [30]: < 5 nM | TGI [30]: > 50000 nM | GI50 [31]: < 5 nM | GI50 [32]: < 5 nM | TGI [32]: < 5 nM | GI50 [33]: < 5 nM | TGI [33]: > 50000 nM | GI50 [34]: < 5 nM | TGI [34]: > 32900 nM | GI50 [35]: < 5 nM | TGI [35]: 496 nM | GI50 [36]: 9.94 nM | TGI [36]: > 50000 nM | GI50 [37]: 6.44 nM | TGI [37]: > 50000 nM | GI50 [38]: < 5 nM | TGI [38]: > 22900 nM | GI50 [39]: < 5 nM | TGI [39]: > 50000 nM | GI50 [40]: < 5 nM | TGI [40]: > 50000 nM | GI50 [41]: < 5 nM | TGI [41]: > 50000 nM | GI50 [42]: < 5 nM | TGI [42]: < 5 nM | GI50 [43]: < 5 nM | TGI [43]: > 50000 nM | GI50 [44]: 7.62 nM | TGI [44]: > 50000 nM | GI50 [45]: < 5 nM | TGI [45]: < 5 nM | GI50 [46]: 24.4 nM | TGI [46]: 34800 nM | GI50 [47]: < 5 nM | TGI [47]: > 50000 nM | GI50 [48]: < 5 nM | TGI [48]: > 50000 nM | GI50 [49]: < 5 nM | TGI [49]: > 50000 nM | GI50 [50]: < 5 nM | TGI [50]: 25.7 nM | GI50 [51]: > 50000 nM | TGI [51]: > 50000 nM | GI50 [52]: < 5 nM | TGI [52]: > 50000 nM | GI50 [53]: 38 nM | TGI [53]: > 50000 nM | GI50 [54]: < 5 nM | TGI [54]: 42.6 nM | GI50 [55]: 21.8 nM | TGI [55]: > 50000 nM
